In article PMC4721062, “Oxadiazole-2-oxides may have other functional targets, in addition to SjTGR, through which they cause mortality in Schistosoma japonicum” (Parasites & Vectors, 2016):
Where two headings read alike, the source gives them in different places.

Experiments:
[1] = Cytotoxicity assay on Hela cells (MTT); assay type: cell-based; details: human
Method: Cytotoxicity assays were performed using Hela cells. Cells in the exponential growth phase were collected by centrifugation and a concentration of 4–5 × 10^4/mL was created. 100 μL of the cell suspension was added to each well of a 96-well plate and cultured overnight at 37 °C in a humid atmosphere with 5 % CO2. Oxadiazole-2-oxides (at 10, 20, 40, 80 and 160 μM) were added. Each concentration was assayed in triplicate, and control wells (no cells and no drugs) were assayed at the same time. The “no cell” control wells only contained RPMI 1640 medium, MTT, DMSO, and oxadiazole-2-oxides. The “no drug” control wells contained the Hela cells, RPMI 1640 medium, MTT and DMSO. The cells were cultured for 48 h at 37 °C in a humid atmosphere with 5 % CO2. Then, 20 μL of 5 mg/mL MTT was added to each well and the culture conditions were maintained for 4 h. After this point, the medium was removed and 150 μL DMSO was added into each well to dissolve any crystallisation. The value of absorbance at 570 nm of each well was measured (at 570 nm) with a microplate reader to assess the toxic effect of the oxadiazole-2-oxides on the vertebrate cells.

juvenile S. japonicum = experiment: microbe, parasite or virus in culture; assay type: cell-based; details: for mortality at 50 µM / killing at 2 µM / killing at 5 µM / killing at 50 µM: Schistosoma japonicum; for mortality at 50 µM: read-out: Mortality of juvenile worms; for killing at 2 µM / killing at 5 µM / killing at 50 µM / Killing activity 24hr / Killing activity 48hr / Killing activity 72hr: juvenile worms; for Killing activity 24hr / Killing activity 48hr / Killing activity 72hr: 10 μM
In short: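 Juvenile S. japonicum, 20–30 tail-shed cercariae per well, were exposed to compounds at 2, 5, 10 and 50 μM in RPMI 1640 with 10% FBS and HEPES. Survival was scored microscopically at 24, 48 and 72 h, with death defined by disrupted internal structure or tegument or 1 min without motility. % D is dead/total, averaged over three experiments.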

[2] = test system: juvenile S. japonicum in mice; experiment: Treatment of infected mice at juvenile worm stage; assay type: in vivo, Schistosoma japonicum (ICR mice); details: 10 mg/kg i.p. daily for 5 days from day 7 post-infection; for Number of eggs per gram of liver (Mean ± SD) / Number of worms (Mean ± SD): sacrificed day 42; for Egg reduction rate / Worm reduction rate: versus control, 10 mg/kg
Method: (§1) The abdominal skin of each mouse (ICR, female, 22–24 g) was exposed to 20 S. japonica cercariae (as described above). The mice were intraperitoneally injected with 10 mg/kg oxadiazole-2-oxides daily for 5 days, beginning either 7 or 35 days post-infection. Control mice were treated with 10 mg/kg of the carrier medium. All mice were sacrificed 42 days post-infection. The worm burden of each mouse was confirmed by counting the number of worms observed from a portal vein perfusion. The mouse livers were digested overnight with 5 % potassium hydroxyl solution at 37 °C and the eggs in the liver tissue were counted under an inverted phase contrast microscope. The worm and egg reduction rates were calculated using the following formulas: Wormreductionrate%=meannumberofadultwormspermouseincontrolgroup−meannumberofadultwormspermouseinexperimentalgroup/meannumberofadultwormspermouseincontrolgroup. Eggreductionrate%=meannumberofeggspermouseincontrolgroup−meannumberofeggspermouseinexperimentalgroup/meannumberofeggspermouseincontrolgroup.

[3] = test system: adult S. japonicum in mice; experiment: Treatment of infected mice at adult worm stage; assay type: in vivo, Schistosoma japonicum (ICR mice); details: for Number of eggs per gram of liver (Mean ± SD) / Number of worms (Mean ± SD): sacrificed day 42
Method: as §1

adult S. japonica = experiment: Activity against adult S. japonica in vitro with and without NO scavenger carboxy-PTIO; assay type: cell-based, Schistosoma japonicum; parameters: dose or concentration left out as unconfirmed; details: adult worms in vitro
Method: To assess the importance of NO production, the potassium salt of carboxy-PTIO, a NO scavenger, was dissolved in water and 100 mM was incubated with freshly perfused adult S. japonica in the presence or absence of […] oxadiazole-2-oxides. The worms’ mobility, tegumental alterations and parasite survival were monitored using an inverted microscope. The experiment was done in triplicate.
Fig. 4 Activity of oxadiazole-2-oxides against adult S. japonica in vitro, with and without carboxy-PTIO. Carboxy-PTIO was incubated with freshly perfused adult S. japonica at 100 mM in the presence and absence of […] oxadiazole-2-oxides. The worms’ mobility, tegumental alterations and survival rates were monitored under an inverted microscope. The experiment was done in triplicate. The percentage of adult worms that survived are shown (mean ± SD; n = 3)

S. mansoni = details: compared with 10 μM, 72 h data; cited from earlier work
[4] = 24 h, read-out: Killing activity 24hr
[5] = 48 h, read-out: Killing activity 48hr
[6] = 72 h, read-out: Killing activity 72hr
[7] = mice, 10 mg/kg i.p. daily for 5 days from day 35 post-infection
[8] = mice, 10 mg/kg i.p. daily for 5 days from day 35 post-infection, versus control, 10 mg/kg

N#Cc1c(-c2ccc(Br)cc2)no[n+]1[O-] [Compound 7c]
viability at 72 h, 80 µM [1]: 66%
mortality at 50 µM (juvenile S. japonicum; 24 h): > 70%
mortality at 50 µM (juvenile S. japonicum; 72 h): 100%
killing at 2 µM (juvenile S. japonicum; [4]): 100%
killing at 2 µM (juvenile S. japonicum; [5]): 100%
killing at 2 µM (juvenile S. japonicum; [6]): 100%
killing at 5 µM (juvenile S. japonicum; [4]): 100%
killing at 5 µM (juvenile S. japonicum; [5]): 100%
killing at 5 µM (juvenile S. japonicum; [6]): 100%
killing at 50 µM (juvenile S. japonicum; [4]): 100%
killing at 50 µM (juvenile S. japonicum; [5]): 100%
killing at 50 µM (juvenile S. japonicum; [6]): 100%
Killing activity 24hr (juvenile S. japonicum; 24 h): 100.0%D
Killing activity 48hr (juvenile S. japonicum; 48 h): 100.0%D
Killing activity 72hr (juvenile S. japonicum; 72 h): 100.0%D
Number of eggs per gram of liver (Mean ± SD) [2]: 3,859.4 ± 3,749.4 (P > 0.05^**)
Number of worms (Mean ± SD) [2]: 1.4 ± 0.8 (P > 0.05^**)
Egg reduction rate [2]: 52.0 ( P > 0.05^*) %
Worm reduction rate [2]: 87.1 (P < 0.01^*) %
Number of eggs per gram of liver (Mean ± SD) [3, 7]: 7213.0 ± 2658.0 (P < 0.05^**)
Number of worms (Mean ± SD) [3, 7]: 12.0 ± 3.9 (P < 0.05^**)
Egg reduction rate ([3]; mice, 10 mg/kg i.p. daily for 5 days from day 35 post-infection, versus control): 10.2 (P > 0.05^*) %
Killing activity with versus without carboxy-PTIO (adult S. japonica): no differences in the killing activities
Mortality in adult worms of S. mansoni (S. mansoni): 100.0%

N#Cc1c(-c2ccc(O)cc2)no[n+]1[O-] [Compound 8]
mortality at 50 µM (juvenile S. japonicum; 24 h): < 30%
killing at 2 µM (juvenile S. japonicum; [4]): 12%
killing at 2 µM (juvenile S. japonicum; [5]): 18%
killing at 2 µM (juvenile S. japonicum; [6]): 21%
killing at 5 µM (juvenile S. japonicum; [4]): 12.8%
killing at 5 µM (juvenile S. japonicum; [5]): 23%
killing at 5 µM (juvenile S. japonicum; [6]): 46.2%
killing at 50 µM (juvenile S. japonicum; [4]): 26.8%
killing at 50 µM (juvenile S. japonicum; [5]): 28.2%
killing at 50 µM (juvenile S. japonicum; [6]): 33.8%
Killing activity 24hr (juvenile S. japonicum; 24 h): 15.1%D
Killing activity 48hr (juvenile S. japonicum; 48 h): 23.3%D
Killing activity 72hr (juvenile S. japonicum; 72 h): 25.6%D
Mortality in adult worms of S. mansoni (S. mansoni): 100.0%

N#Cc1c(-c2ccc(OC/C=C/CBr)cc2)no[n+]1[O-] [Compound 16]
viability at 72 h, 80 µM [1]: 89%
mortality at 50 µM (juvenile S. japonicum; 24 h): < 30%
mortality at 50 µM (juvenile S. japonicum; 72 h): 72.1 ± 3.7%
killing at 2 µM (juvenile S. japonicum; [4]): 14.7%
killing at 2 µM (juvenile S. japonicum; [5]): 22.7%
killing at 2 µM (juvenile S. japonicum; [6]): 25.3%
killing at 5 µM (juvenile S. japonicum; [4]): 16.1%
killing at 5 µM (juvenile S. japonicum; [5]): 21.9%
killing at 5 µM (juvenile S. japonicum; [6]): 34.3%
killing at 50 µM (juvenile S. japonicum; [4]): 31.4%
killing at 50 µM (juvenile S. japonicum; [5]): 60.5%
killing at 50 µM (juvenile S. japonicum; [6]): 72.1%
Killing activity 24hr (juvenile S. japonicum; 24 h): 20.9%D
Killing activity 48hr (juvenile S. japonicum; 48 h): 27.3%D
Killing activity 72hr (juvenile S. japonicum; 72 h): 39.1%D
Number of eggs per gram of liver (Mean ± SD) [2]: 4,054.5 ± 1,322.1 (P > 0.05^**)
Number of worms (Mean ± SD) [2]: 1.0 ± 0.5 (P > 0.05^**)
Egg reduction rate [2]: 49.5 (P < 0.01^*) %
Worm reduction rate [2]: 90.8 (P < 0.01^*) %
Reduction in the female worms ([3]; mice treated at adult worm stage (data not shown)): 44.7%
Number of eggs per gram of liver (Mean ± SD) [3, 7]: 6424.1 ± 1193.4 (P < 0.05^**)
Number of worms (Mean ± SD) [3, 7]: 3.7 ± 1.4 (P > 0.05^**)
Egg reduction rate [3, 8]: 20.0 (P > 0.05^*) %
Worm reduction rate [3, 8]: 69.4 (P < 0.01^*) %
Killing activity with versus without carboxy-PTIO (adult S. japonica): no differences in the killing activities
